From patent publication US8110544B2, “RasGAP derived peptide for selectively killing cancer cells” (Universite de Lausanne, priority 2003, dated 2012)

Tests used:
Assay type in all cases: cell-based, human
[1] = system: cancer cell lines (HeLa, U2OS, MCF-7, and H-Meso1); assay: Genotoxin-induced apoptosis (pycnotic nuclei) in cancer cell lines with or without peptides; conditions: 20 μM peptide
Experimental: Four cancer cell lines (HeLa, U2OS, MCF-7, and H-Meso1) were plated in 6-wells plates and treated with the indicated concentrations of cisplatin, adriamycin and mitoxantrone in the absence or in the presence of either 20 μM MV-TAT48-57 Or TAT-RaSGAP317-326 peptides for 20 hours. The number of cells displaying pycnotic nucleus was then scored. The results correspond to the mean±standard deviation of three independent determinations. Asterisks denote significant differences between the genotoxin-treated cells incubated with TAT-RaSGAP317-326 and those left untreated or incubated with the HIV-TAT48-57 peptide (**, p<0.01; ***, p<0.001).
Apoptosis was determined by scoring the number of cells displaying pycnotic nuclei. Nuclei of live cells were labeled with Hoechst 33342 (10 μg/ml final concentration) for about 5 minutes and the cells were then analyzed (at least 400 cells per condition) using an inverted Leica DMIRB microscope equipped with fluorescence and transmitted light optics. Assessment of apoptosis was performed one day after the transfection or treatment of the cells. In experiment involving transfected cells, pEGFP-C1 was included in the transfection solution to label the transfected cells with GFP. In this case, the extent of apoptosis was assessed in the transfected cells only. […]

JNK = assay: Western blot of phospho-JNK in U2OS cells; conditions: 20 μM peptide
Experimental: (§1) U2OS cells (2×10^5) were plated in 6 well plates and treated for the indicated periods of time with the indicated combinations of the HW-TAT48-57 or TAT-RasGAP317-326 peptides (at a 20 μM concentration) and cisplatin (at a 30 μM concentration). Positive controls for JNK and p38 activation were obtained following stimulation of the cells with 1 μg/ml anisomycine during 3 hours and with 0.5 M sorbitol for 30 min, respectively. The quantitations depicted under the Western blots were performed on the 12-hour bands and normalized against the positive controls. The results correspond to the mean±standard deviation of three independent experiments. […]

[2] = system: HeLa, U2OS, H-Meso1, MCF-7, HaCat and HUV-EC-C cell lines; assay: Cellular uptake of FITC-labelled peptide (epifluorescence of live cells); conditions: FITC-labelled peptide 20 μM
Experimental: The following cell lines (HeLa, U2OS, H-Meso1, MCF-7, HaCat and HUV-EC-C) were incubated 3 hours at 37° C., 5% CO2 in culture medium with 20 μM FITC-labelled TAT-RasGAP317-326 peptide and then washed three times with culture medium.
Fluorescein isothiocyanate (FITC)-labeling was performed on the sequence β-alanine-[…] (SEQ ID NO: 16) whose side chain Fmoc-protected amino acids were Arg(bpf), Lys(Boc), Gln(Trt), Trp(Boc), Thr(tBu), Asn(Trt), and Asp(OtBu). The peptide was synthesized stepwise on 0.2 mmol Rink Amide AM resin using Fmoc chemistry. The synthesis was monitored by ninhydrin test. After the coupling of β-alanine, the Fmoc group was removed with 20% piperidine in dimethylformamide (DMF). At this stage, a fluorescein group was conjugated to the N-terminus of peptide with FITC (5 fold excess over the substitution of the resin in 4 ml DMF and 1 ml N-ethyldiisopropylamine) to form the fluorescein-derivated peptide.
If a plasmid encoding amino acid 317-326 of RasGAP has the ability to enhance the ability of a drug to kill cancer cells, a synthetic peptide corresponding to the […] should also display this activity provided that it can penetrate cells. […] We first assessed the sensitivity of the cancer cell lines towards increasing concentrations of the three genotoxins (data not shown). […]

NFκB activity = assay: NFκB firefly luciferase reporter assay in U2OS cells; conditions: 20 hours
Experimental: U2OS Cells (1×10^5) were plated in 6 well plates and transfected with 1 μg of a firefly luciferase reporter plasmid for NFκB activity and 0.1 μg of a plasmid encoding the Renilla luciferase. The cells were treated one day later with the indicated concentrations of cisplatin in the absence or in the presence of 20 μM HV-TAT48-57 or TAT-RaSGAP317-326 peptides during 20 hours. The data represent the firefly luciferase activity normalized to the Renilla luciferase activity and expressed as fold increase of the basal NFκB activity obtained in control untreated cells. The results correspond to the mean±standard deviation of three independent determinations. Asterisks denote significant differences between the indicated conditions (**, p<0.01; ***, p<0.001).
(§2) U2OS cells were transfected with 1 μg of a firefly luciferase reporter plasmid for NFκB activity, 0.1 μg of a plasmid encoding the Renilla luciferase, 0.5 μg of a GFP-expressing plasmid (to label the transfected cells), 1 μg of a plasmid encoding IκBαΔN2 that inhibit the NFκB pathway or with 1 μg an empty pcDNA3 vector. The cells were incubated one day later with increasing concentrations of cisplatin in the presence of 20 μM HIV-TAT48-57 or 20 μM TAT-RasGAP317-326 for an additional 20 hour period. The cells were then lysed and the NFκB activity assessed as described in panel A, except that the results were expressed as fold increase of the NFκB activity detected in cells incubated with the control HV-TAT48-57 peptide.
Luciferase assay was performed using the Dual-Luciferase® Reporter Assay from Promega (cat. no E1910). […] The firefly luciferase activity was recorded by mixing 20 μl of the lysate with 25 μl of the LARII Reagent and the Renilla luciferase activity was recorded by adding to the previous mix 25 μl of the Stop & Glo Reagent. For each measurement, light emission was quantified during 12 seconds using a Lumat LB 9501 luminometer (Berthold Technologies, Zurich, Switzerland).

p38 MAPKs = assay: Western blot of phospho-p38 in U2OS cells; conditions: 20 μM peptide
Experimental: as §1

U2OS cells = assay: Apoptosis of transfected (GFP-positive) U2OS cells with or without IκBαΔN2; conditions: 20 μM peptide, IkBαΔN2 expressed, 20 hours
Experimental: as §2
Alternatively, the number of GFP-positive cells displaying pycnotic nucleus was determined. The results correspond to the mean±standard deviation of three independent determinations.
Apoptosis was determined by scoring the number of cells displaying pycnotic nuclei. Nuclei of live cells were labeled with Hoechst 33342 (10 μg/ml final concentration) for about 5 minutes and the cells were then analyzed (at least 400 cells per condition) using an inverted Leica DMIRB microscope equipped with fluorescence and transmitted light optics. […] In this case, the extent of apoptosis was assessed in the transfected cells only.

GRKKRRQRRRGGWMWVTNLRTD [TAT-RasGAP317-326]
enhancement of the ability of cisplatin, adriamycin and mitoxantrone to kill cancer cell lines ([1]; 20 hours, sub-lethal genotoxin concentrations): enhanced the ability of cisplatin, adriamycin, and mitoxantrone to kill the tested cancer cell lines
apoptosis induced in control conditions (no genotoxin) ([1]; cancer cell lines): did not, or only marginally, induce apoptosis in control conditions
activation of JNK pathway by peptide alone (JNK): neither the control HIV-TAT48-57 peptide nor the TAT-RasGAP317-326 peptide activated these MAPK pathways
difference in translocation between non cancer cells and cancer cells ([2]; 3 hours): No difference in translocation
cellular uptake of the peptide ([2]; 3 hours at 37° C., four tumor and two non cancer cell lines): efficiently entered all these cell lines
NFkB activation in U2OS cells (single agent) (NFκB activity; 20 μM peptide or cisplatin): activated
NFkB activation with both cisplatin and peptide (NFκB activity; U2OS cells, cisplatin plus 20 μM peptide): additive activation of NFkB
activation of p38 MAPK pathway by peptide alone (p38 MAPKs): neither the control HIV-TAT48-57 peptide nor the TAT-RasGAP317-326 peptide activated these MAPK pathways
potency to enhance cisplatin killing of U2OS cells in presence of NFkB inhibitor (U2OS cells): unaffected by the NFkB inhibitor
